How the values were obtained:
[1] = Clearance in Sprague-Dawley rat at 3 mg/kg, iv measured up to 24 hrs by LC-MS/MS analysis; type: ADME, organism-based; settings: in vivo
[2] = target: Receptor tyrosine-protein kinase erbB-4 (Homo sapiens, UniProt Q15303); experiment: Inhibition of ErBB4 (unknown origin)
[3] = target: Calcium/calmodulin-dependent protein kinase kinase 2 (Homo sapiens, UniProt Q96RR4); experiment: Inhibition of CAMKK2 (unknown origin)
[4] = target: Calcium/calmodulin-dependent protein kinase type II subunit beta (Homo sapiens, UniProt Q13554); experiment: Inhibition of CAMK2 (unknown origin)
Calcium/calmodulin-dependent protein kinase type II subunit beta, sequence (Q13554 whole entry): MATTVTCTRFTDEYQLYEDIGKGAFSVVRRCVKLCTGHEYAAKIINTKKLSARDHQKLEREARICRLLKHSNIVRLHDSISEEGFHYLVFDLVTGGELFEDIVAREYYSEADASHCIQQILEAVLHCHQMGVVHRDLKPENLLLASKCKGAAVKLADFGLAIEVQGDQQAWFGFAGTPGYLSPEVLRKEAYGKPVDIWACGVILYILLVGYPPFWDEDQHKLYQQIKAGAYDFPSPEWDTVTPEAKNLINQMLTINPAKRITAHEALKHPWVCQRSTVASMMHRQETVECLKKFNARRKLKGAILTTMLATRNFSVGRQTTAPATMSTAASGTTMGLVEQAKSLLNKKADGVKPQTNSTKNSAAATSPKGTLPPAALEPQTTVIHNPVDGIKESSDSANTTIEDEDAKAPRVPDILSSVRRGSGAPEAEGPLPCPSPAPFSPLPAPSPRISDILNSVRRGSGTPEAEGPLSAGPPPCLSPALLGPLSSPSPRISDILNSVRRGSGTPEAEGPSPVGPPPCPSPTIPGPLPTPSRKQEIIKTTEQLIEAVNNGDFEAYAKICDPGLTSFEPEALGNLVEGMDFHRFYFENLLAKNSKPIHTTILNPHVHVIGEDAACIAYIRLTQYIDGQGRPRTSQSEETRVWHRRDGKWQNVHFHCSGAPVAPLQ

[5] = target: Serine/threonine-protein kinase mTOR (Homo sapiens, UniProt P42345); experiment: Inhibition of mTOR (unknown origin)
[6] = Inhibition of GSK3alpha/GSK3beta (unknown origin); parameters: species or system Homo sapiens
[7] = Metabolic stability in rat liver microsomes assessed as intrinsic clearance at 100 uM/L measured upto 90 mins by LC-MS/MS analysis; type: ADME, Microsome; settings: 1.5 h
[8] = Inhibition of PKC (unknown origin); parameters: species or system Homo sapiens
[9] = target: Tyrosine-protein kinase HCK (Homo sapiens, UniProt P08631); experiment: Inhibition of HCK (unknown origin)
Tyrosine-protein kinase HCK, sequence (P08631 whole entry): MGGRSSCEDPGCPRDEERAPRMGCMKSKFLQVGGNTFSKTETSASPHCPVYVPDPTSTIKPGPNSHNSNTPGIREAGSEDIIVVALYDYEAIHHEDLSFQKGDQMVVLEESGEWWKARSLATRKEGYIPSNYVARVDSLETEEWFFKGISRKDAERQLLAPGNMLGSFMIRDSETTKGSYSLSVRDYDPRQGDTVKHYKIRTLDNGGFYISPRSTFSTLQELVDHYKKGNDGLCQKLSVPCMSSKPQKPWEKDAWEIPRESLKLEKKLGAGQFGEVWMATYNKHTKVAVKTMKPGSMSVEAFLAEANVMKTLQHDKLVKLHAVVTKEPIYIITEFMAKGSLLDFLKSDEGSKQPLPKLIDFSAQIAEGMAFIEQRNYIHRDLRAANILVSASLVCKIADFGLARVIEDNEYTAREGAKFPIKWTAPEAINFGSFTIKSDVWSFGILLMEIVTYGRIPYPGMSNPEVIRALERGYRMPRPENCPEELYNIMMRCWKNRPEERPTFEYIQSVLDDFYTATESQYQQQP

[10] = Metabolic stability in human liver microsomes assessed as intrinsic clearance at 100 uM/L measured upto 90 mins by LC-MS/MS analysis; type: ADME, Microsome; settings: 1.5 h
[11] = Metabolic stability in dog liver microsomes assessed as half life at 100 uM/L measured upto 90 mins by LC-MS/MS analysis; type: ADME, Canis lupus familiaris, Microsome
[12] = Half life in Sprague-Dawley rat at 3 mg/kg, iv measured up to 24 hrs by LC-MS/MS analysis; type: ADME, organism-based; settings: in vivo
[13] = Toxicity in BALB/c mouse assessed as free movement at 2 g/kg, po measured after 7 days of administration; settings: in vivo, 168 h
[14] = target: Tyrosine-protein kinase JAK1 (Homo sapiens, UniProt P23458); experiment: Inhibition of JAK1 (unknown origin)
Tyrosine-protein kinase JAK1, sequence (P23458 whole entry): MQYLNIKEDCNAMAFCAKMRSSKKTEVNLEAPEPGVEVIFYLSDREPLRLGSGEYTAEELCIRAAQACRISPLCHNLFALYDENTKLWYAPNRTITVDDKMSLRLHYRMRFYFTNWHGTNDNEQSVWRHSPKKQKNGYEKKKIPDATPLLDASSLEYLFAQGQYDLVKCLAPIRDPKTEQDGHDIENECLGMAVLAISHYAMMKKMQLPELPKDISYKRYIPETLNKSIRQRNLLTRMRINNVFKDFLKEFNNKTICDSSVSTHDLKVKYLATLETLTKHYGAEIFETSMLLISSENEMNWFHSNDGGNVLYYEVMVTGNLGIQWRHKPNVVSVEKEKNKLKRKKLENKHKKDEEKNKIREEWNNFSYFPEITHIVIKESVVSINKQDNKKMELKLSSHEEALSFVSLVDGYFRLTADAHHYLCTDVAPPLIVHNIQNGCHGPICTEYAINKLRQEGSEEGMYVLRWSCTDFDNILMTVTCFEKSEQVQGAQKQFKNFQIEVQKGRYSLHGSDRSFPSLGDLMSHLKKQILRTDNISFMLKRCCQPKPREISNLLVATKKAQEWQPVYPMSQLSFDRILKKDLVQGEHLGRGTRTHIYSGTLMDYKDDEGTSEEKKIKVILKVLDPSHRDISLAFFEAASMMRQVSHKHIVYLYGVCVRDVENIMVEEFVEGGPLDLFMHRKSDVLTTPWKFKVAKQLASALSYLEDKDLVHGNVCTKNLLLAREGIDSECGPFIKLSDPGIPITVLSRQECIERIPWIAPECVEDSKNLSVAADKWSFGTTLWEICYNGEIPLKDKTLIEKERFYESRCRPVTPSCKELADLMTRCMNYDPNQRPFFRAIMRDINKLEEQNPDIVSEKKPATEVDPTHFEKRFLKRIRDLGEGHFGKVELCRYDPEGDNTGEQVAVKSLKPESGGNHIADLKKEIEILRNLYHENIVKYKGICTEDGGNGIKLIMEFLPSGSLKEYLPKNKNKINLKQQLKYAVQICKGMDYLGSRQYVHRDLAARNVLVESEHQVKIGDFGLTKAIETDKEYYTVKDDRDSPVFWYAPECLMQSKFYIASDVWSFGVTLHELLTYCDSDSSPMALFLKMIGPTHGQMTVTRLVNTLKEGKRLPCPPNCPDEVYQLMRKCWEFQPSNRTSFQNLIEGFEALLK

[15] = target: Tyrosine-protein kinase BTK (Homo sapiens, UniProt Q06187); experiment: Inhibition of BTK in human Raji cells assessed as reduction in BTK Y223 phosphorylation incubated for 1 hr by Western blot analysis; type: cell-based; settings: dose 0.03-10 µM
[16] = target: High affinity nerve growth factor receptor (Homo sapiens, UniProt P04629); experiment: Inhibition of recombinant human TRKa using Ulight-Poly GAT[EAY(1:1:1)]n as substrate incubate for 10 mins by LANCE assay
High affinity nerve growth factor receptor, sequence (P04629 whole entry): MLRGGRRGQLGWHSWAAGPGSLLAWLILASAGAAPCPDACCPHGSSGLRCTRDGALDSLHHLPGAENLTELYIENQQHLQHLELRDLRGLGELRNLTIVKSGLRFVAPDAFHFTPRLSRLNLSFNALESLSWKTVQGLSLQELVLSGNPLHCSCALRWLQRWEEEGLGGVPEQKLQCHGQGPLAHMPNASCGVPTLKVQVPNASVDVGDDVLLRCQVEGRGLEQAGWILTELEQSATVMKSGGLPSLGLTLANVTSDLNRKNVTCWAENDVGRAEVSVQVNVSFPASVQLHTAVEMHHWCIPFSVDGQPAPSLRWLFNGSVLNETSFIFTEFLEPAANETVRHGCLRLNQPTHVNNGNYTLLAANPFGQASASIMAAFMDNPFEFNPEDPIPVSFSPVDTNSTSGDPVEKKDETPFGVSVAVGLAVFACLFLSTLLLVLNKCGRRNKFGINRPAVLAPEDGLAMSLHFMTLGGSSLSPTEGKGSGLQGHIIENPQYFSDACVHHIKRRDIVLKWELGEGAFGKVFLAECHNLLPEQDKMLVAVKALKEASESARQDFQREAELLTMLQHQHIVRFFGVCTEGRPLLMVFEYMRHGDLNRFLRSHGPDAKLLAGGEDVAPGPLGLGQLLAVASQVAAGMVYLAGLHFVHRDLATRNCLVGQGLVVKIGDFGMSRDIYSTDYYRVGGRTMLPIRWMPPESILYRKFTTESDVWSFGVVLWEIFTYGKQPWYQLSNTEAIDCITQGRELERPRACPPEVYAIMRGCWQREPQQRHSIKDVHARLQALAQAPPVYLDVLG

Receptor tyrosine-protein kinase erbB-4, sequence (Q15303 whole entry): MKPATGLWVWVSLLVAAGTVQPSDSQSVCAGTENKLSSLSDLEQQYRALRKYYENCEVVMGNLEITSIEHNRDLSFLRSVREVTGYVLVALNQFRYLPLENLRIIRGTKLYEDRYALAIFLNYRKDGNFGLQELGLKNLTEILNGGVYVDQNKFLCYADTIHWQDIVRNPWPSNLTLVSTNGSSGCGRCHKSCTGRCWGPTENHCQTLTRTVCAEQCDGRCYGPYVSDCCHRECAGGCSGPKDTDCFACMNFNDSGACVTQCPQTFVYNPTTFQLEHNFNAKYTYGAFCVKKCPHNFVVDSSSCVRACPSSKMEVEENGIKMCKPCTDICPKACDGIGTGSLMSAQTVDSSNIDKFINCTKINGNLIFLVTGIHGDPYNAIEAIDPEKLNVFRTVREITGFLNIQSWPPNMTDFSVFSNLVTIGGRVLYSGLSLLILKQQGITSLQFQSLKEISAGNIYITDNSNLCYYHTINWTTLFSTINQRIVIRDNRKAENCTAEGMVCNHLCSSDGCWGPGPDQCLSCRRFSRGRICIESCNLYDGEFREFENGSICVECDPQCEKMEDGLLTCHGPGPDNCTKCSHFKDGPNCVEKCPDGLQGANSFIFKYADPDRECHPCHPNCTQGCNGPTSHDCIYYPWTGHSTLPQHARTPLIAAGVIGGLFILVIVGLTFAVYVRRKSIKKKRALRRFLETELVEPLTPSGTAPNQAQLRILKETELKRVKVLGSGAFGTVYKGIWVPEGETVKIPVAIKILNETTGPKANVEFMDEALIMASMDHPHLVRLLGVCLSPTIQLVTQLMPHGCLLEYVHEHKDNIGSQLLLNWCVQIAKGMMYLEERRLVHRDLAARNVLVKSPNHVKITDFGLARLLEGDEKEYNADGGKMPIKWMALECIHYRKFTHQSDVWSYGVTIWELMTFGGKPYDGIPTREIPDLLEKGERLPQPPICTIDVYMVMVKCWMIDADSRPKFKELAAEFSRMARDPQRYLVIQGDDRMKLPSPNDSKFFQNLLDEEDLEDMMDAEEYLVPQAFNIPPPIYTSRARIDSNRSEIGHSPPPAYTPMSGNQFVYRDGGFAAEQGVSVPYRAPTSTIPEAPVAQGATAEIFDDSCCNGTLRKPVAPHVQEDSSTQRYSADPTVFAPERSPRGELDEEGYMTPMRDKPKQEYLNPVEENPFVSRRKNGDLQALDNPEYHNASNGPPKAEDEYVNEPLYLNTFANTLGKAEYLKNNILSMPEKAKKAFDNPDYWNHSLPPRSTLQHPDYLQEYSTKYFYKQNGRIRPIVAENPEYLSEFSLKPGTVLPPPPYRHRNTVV
Calcium/calmodulin-dependent protein kinase kinase 2, sequence (Q96RR4 whole entry): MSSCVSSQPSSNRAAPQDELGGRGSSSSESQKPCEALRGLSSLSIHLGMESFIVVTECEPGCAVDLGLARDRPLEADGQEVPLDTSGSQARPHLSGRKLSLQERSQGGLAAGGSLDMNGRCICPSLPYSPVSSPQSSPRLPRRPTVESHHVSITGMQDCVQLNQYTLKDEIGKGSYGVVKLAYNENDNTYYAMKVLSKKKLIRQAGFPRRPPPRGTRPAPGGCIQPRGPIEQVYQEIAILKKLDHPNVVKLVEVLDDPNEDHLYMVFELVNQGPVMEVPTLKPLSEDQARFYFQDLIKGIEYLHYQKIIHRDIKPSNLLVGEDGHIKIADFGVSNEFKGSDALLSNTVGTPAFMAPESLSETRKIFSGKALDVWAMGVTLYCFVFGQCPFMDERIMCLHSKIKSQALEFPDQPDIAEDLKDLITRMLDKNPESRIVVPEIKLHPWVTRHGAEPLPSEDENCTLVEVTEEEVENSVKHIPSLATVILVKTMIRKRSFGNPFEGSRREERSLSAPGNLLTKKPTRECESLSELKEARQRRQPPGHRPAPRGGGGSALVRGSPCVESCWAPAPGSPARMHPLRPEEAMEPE

## C=CC(=O)N1CCC(Cn2cc(-c3ccc4c(c3)OCO4)c3c(N)ncnc32)CC1
[1]
  CL: 137 mL/min/kg
[2]
  IC50: > 10 µM
[3]
  IC50: > 10 µM
[4]
  IC50: > 10 µM
[5]
  IC50: > 10 µM
[6]
  IC50: > 10 µM
[7]
  CLH: 7.4 µL/min/mg
[8]
  IC50: > 10 µM
[9]
  IC50: 1.11 µM
[10]
  CLH: 4.2 µL/min/mg
[11]
  half-life at 100 µM: 5.25 h
[12]
  t1/2: 5.18 h
[13]
  Activity: Non-Toxic
[14]
  IC50: > 10 µM
[15]
  inhibition: Dose-dependent effect
[16]
  IC50: > 10 µM

Source: ChEMBL document CHEMBL4715815, “Design, synthesis and biological evaluation of 7H-pyrrolo[2,3-d]pyrimidin-4-amine derivatives as selective Btk inhibitors with improved pharmacokinetic properties for the treatment of rheumatoid arthritis” (Eur J Med Chem, 2018)
